Where “and” joins values, the source holds several entries; their conditions need not be identical. Equal values may be shown once.
Target: T1, cardiac RyR2 (Sus scrofa, UniProt A0A5G2R1W3)
T1 construct: from tissue; host or cells: pig heart ventricle (sarcoplasmic reticulum microsomes)
Assay: Single-channel recordings of RyR2 reconstituted into planar lipid bilayers
Assay type: biochemical, pig
Conditions: for dwell time of ryanodol-induced events: Vm = +20 mV, n = 7, mean±SEM; for dwell time of ryanodol-induced events / slope conductance of the induced substate (I-V curve): SEM; for substate current level as % of the current through the full open channel / substate current level as % of the full open current: 1 µg/ml protamine, 10 µM ryanodol or 50 nM IpTxA, 10 µM cytosolic Ca2+/5 mM caffeine; for substate current level as % of the full open current: Vm = +40 mV; for slope conductance of the induced substate (I-V curve): fully active RyR2 (10 µM Ca2+/5 mM caffeine), full open state 129±1 pS, n = 10 protamine, 13 ryanodol, 5 IpTxA, mean±SEM
Text: All procedures with animals were designed to minimize pain and suffering and conformed to the guidelines of the National Institutes of Health. The committee on the Use and Care of Laboratory Animals of Southern Illinois University School of Medicine reviewed and approved the protocols for animal use. Sarcoplasmic reticulum (SR) microsomes were obtained from pig heart ventricle using heart homogenization and ultracentrifugation steps that follow the procedures published by Chamberlain et al.. SR pellets obtained after high speed centrifugation were resuspended in 290 mM sucrose - 5 mM Imidazole buffer (pH = 7) and were aliquoted in cryovials (300 µl each) and kept in liquid nitrogen (better and safer long-term storage). Every month, a few cryovials are used to generate smaller aliquots of membranes (15 µl each) which were stored at –80°C for easy access. For experiments, aliquots were quickly thawed in water, kept on ice and used within 3–5 hours.
Reconstitution of RyR2 in planar lipid bilayers, was performed as previously described. Briefly, planar lipid bilayers were formed on 80 to 100 µm-diameter circular holes in teflon septa, separating two 1.3 ml compartments. The trans compartment was filled with HEPES-Ca^2+ solution containing HEPES 250 mM and Ca(OH)2 53 mM, pH 7.4. The trans compartment was clamped at 0 mV using an Axopatch 200B patch-clamp amplifier (Axon Instruments, Foster City, CA). The cis compartment (ground) was filled with HEPES-Tris solution containing HEPES 250 mM and TrisOH 118 mM, pH 7.4. Bilayers of a 5∶4∶1 mixture of bovine brain phosphatidylethanolamine, phosphatidylserine and phosphatidylcholine (45–50 mg/ml in decane) were painted onto the holes of teflon septa from the cis side. Sarcoplasmic reticulum microsomes (5–15 µg) were then added to the cis solution followed by 500–1000 mM CsCl and 1 mM CaCl2 to promote vesicle fusion. After RyR currents (or Cl^− currents >100 pA at 0 mV) were observed, the cis chamber was perfused with HEPES-TRIS solution for 5 min at 4 ml/min. A mixture of BAPTA and dibromo-BAPTA was used to buffer free [Ca^2+] on the cytosolic surface of the channel ([Ca^2+]cyt). As previously done, RyR channels were identified by current amplitudes (∼3.5 pA at 0 mV), slope conductance (∼100 pS), reversal potential (∼−45 mV, trans - cis) and response to diagnostic ligands (e.g., ryanodine, Ca^2+, ATP, caffeine and Ruthenium Red). RyR channel currents are depicted as positive (upward deflections of the current) in figures and reflect cation flux from the trans (lumenal) to the cis (cytosolic) compartment. Membrane voltages always represent the difference between trans - cis compartments (in mV).
Channel currents were first filtered through the Axopatch 200B low-pass Bessel filter at 2 kHz, digitized at 20 kHz with an analog to digital converter (Digidata 1320, Axon Instruments) and stored on DVD. Recordings were analyzed using pClamp9 software (Axon Instruments). Analysis with this program included open times, closed times and open probabilities (Po), which were determined by half-amplitude threshold analysis of single-channel recordings as done before.
Recordings were digitally filtered at 500 Hz in order to estimate the probabilities of substates using two different methods:
Frame by frame analysis (100 ms/frame) was performed using pClamp9 on each 4-min recording. […] The parameters (mean amplitude and duration) of each event were collected and averaged. The probability of substate occurrence, Psubstate, was estimated from the ratio: time spent in substate/total recording time. Pfull open was estimated as the fraction of time spent in the maximal current level (full opening).

T1 sequence (A0A5G2R1W3 20-4900): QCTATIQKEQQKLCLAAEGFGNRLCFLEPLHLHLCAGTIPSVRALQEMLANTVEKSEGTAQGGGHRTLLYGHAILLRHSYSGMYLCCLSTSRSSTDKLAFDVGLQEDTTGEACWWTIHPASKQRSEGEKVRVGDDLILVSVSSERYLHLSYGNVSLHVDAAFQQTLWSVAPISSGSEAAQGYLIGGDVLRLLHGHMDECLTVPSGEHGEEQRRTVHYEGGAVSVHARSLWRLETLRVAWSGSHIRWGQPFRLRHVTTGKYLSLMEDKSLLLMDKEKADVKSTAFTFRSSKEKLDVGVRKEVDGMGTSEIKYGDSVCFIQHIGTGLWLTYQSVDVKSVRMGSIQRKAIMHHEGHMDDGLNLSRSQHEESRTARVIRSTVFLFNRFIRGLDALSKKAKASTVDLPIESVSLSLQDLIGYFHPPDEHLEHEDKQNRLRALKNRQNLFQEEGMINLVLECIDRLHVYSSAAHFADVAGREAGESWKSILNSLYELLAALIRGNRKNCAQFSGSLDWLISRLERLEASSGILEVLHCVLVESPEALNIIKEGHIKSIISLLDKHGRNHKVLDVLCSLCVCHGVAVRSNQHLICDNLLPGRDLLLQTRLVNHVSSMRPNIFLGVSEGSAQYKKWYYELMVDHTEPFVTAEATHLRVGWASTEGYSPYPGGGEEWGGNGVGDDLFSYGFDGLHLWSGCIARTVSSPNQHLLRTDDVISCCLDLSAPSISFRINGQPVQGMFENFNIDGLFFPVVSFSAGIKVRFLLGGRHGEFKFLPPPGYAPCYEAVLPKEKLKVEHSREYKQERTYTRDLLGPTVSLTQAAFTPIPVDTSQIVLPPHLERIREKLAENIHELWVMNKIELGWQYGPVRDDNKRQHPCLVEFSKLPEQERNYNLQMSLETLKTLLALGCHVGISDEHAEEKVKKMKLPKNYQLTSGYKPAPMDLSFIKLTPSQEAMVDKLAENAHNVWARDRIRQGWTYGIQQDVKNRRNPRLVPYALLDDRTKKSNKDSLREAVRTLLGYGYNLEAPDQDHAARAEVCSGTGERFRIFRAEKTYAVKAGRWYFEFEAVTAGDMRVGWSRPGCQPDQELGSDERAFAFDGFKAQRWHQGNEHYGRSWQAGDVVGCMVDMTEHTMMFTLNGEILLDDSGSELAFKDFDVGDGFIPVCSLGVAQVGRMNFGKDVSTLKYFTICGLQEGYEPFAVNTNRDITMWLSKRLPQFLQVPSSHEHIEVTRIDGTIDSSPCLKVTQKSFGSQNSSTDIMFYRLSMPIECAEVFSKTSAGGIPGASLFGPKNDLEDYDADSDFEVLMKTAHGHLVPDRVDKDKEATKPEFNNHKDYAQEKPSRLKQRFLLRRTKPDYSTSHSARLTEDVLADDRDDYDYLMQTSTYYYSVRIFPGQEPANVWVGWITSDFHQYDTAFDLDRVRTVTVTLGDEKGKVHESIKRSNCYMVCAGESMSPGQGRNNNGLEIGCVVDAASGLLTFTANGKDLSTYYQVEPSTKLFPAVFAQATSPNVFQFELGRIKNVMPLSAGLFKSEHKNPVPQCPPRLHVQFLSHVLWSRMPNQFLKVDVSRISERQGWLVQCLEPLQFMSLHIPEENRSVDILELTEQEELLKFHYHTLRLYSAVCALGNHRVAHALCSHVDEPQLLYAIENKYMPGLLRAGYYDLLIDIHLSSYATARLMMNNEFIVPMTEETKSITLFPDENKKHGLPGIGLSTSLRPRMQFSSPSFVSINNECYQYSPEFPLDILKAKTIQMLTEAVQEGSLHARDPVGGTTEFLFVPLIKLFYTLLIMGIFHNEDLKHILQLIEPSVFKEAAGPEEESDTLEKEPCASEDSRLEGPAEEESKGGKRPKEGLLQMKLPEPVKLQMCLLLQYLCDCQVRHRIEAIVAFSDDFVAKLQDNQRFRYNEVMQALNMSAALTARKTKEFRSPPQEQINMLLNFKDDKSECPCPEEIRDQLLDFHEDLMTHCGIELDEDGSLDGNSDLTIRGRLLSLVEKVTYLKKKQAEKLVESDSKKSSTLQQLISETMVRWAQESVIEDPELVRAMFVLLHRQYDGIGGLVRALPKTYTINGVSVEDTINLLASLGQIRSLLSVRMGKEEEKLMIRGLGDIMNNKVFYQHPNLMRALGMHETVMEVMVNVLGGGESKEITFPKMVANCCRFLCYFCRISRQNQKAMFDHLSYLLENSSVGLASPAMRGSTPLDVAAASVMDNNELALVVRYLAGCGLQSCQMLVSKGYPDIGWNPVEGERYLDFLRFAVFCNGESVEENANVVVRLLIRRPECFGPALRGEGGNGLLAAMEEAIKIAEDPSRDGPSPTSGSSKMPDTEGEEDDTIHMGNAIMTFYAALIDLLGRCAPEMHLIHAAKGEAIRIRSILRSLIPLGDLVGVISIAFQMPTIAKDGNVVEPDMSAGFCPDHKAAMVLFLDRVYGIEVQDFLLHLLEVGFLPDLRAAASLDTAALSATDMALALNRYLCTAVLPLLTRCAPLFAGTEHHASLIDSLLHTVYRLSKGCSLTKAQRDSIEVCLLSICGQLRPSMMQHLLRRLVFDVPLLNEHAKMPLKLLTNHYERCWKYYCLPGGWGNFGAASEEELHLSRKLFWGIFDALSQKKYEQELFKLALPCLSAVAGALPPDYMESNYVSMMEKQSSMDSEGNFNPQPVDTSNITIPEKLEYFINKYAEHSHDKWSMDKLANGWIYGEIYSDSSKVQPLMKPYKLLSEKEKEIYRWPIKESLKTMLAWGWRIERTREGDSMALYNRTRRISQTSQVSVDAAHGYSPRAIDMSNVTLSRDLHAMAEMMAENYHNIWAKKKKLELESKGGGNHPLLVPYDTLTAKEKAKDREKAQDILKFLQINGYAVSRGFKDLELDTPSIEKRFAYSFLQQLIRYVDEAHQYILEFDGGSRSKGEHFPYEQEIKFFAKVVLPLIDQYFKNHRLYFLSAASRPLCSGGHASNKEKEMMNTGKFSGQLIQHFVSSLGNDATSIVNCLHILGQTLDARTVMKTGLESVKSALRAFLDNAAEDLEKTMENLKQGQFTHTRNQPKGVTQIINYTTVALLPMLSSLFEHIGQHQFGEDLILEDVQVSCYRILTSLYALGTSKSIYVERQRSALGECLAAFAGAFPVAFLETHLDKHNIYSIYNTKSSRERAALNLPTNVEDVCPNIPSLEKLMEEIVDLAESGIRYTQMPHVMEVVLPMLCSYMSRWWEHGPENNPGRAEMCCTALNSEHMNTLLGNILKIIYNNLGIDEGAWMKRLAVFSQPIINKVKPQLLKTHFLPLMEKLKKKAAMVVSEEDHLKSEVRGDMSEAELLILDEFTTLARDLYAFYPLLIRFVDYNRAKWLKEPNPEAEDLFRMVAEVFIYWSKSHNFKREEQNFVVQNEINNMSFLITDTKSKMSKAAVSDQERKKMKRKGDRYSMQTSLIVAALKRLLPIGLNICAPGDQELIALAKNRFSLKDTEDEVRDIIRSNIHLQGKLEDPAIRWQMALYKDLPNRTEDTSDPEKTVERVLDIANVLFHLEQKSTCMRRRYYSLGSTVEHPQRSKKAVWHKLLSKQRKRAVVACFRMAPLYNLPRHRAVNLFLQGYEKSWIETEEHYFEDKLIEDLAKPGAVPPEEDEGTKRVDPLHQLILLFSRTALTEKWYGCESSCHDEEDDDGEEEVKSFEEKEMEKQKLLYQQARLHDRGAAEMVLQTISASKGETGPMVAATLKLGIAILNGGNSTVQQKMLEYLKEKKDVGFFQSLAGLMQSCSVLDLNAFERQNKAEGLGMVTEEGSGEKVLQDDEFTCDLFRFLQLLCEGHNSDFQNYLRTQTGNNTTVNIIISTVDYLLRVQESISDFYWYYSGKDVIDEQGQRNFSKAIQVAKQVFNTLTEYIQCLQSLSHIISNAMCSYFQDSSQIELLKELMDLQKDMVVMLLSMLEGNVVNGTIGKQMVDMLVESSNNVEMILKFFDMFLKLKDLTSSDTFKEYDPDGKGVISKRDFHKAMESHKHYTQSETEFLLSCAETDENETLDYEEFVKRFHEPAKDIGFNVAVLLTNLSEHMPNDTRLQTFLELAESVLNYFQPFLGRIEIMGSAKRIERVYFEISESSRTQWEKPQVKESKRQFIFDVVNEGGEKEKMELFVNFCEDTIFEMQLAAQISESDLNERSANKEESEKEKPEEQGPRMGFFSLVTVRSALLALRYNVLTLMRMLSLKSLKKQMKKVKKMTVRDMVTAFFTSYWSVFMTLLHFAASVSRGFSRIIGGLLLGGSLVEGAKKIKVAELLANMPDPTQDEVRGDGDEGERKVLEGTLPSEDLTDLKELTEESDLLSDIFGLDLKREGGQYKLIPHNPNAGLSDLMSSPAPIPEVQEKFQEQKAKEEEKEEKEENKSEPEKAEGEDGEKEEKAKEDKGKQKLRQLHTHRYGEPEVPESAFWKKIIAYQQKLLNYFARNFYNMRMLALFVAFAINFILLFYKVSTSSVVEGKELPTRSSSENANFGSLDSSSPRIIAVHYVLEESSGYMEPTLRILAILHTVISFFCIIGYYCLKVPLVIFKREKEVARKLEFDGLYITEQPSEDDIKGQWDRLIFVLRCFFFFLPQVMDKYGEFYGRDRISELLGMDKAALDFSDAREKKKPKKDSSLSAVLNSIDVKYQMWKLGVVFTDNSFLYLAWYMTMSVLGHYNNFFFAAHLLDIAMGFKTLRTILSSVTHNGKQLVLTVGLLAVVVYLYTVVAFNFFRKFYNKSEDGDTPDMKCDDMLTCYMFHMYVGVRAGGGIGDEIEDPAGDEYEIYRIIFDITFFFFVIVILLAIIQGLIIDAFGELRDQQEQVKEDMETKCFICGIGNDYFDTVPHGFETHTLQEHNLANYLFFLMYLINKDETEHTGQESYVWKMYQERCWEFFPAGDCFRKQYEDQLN

| Compound | dwell time of ryanodol-induced events (10 µM ryanodol + 1 µg/ml protamine + 250 µg/ml heparin) | dwell time of ryanodol-induced events (10 µM ryanodol + 1 µg/ml protamine) | dwell time of ryanodol-induced events (10 µM ryanodol alone) | substate current level as % of the current through the full open channel (Vm = 0 mV) | substate current level as % of the full open current | slope conductance of the induced substate (I-V curve) | effect of IpTxA on RyR2 behavior when protamine is present (50 nM IpTxA + 1 µg/ml protamine, fully activated RyR2) | open probability (Po) after addition of heparin (250 µg/ml heparin after 1 µg/ml protamine, 100 nM cytosolic Ca2+, Vm = 20 mV, n = 5) | effect of subsequent heparin addition on protamine-modified RyR2 (250 µg/ml heparin after 20 µg/ml protamine, Vm = 0 mV) |
| --- | --- | --- | --- | --- | --- | --- | --- | --- | --- |
| CC(C)[C@@]1(O)[C@@H](O)[C@@]2(O)[C@@]3(C)C[C@]4(O)O[C@@]5([C@H](O)[C@@H](C)CC[C@]35O)[C@@]2(O)[C@]14C [ryanodol, Ryanodol] | 3.4 ± 0.5 s | 11 ± 3 s and 11.3 ± 2.5 s | 3.7 ± 0.7 s | ~45% | same proportions | 56±2 pS |  |  |  |
| Imperatoxin A [IpTxA] |  |  |  | ~33% | same proportions | 43±3 pS | little or no effect |  |  |
| heparin |  |  |  |  |  |  |  | 0.009±0.006 | reversed the effect of protamine |
